In the oligonucleotide strings, read from the 5' end, every base follows the letter of its sugar. An asterisk marks phosphorothioate; unmarked linkages are phosphodiester. Other units and linkages are bracketed, terminal groups are in braces. A string of capitals states the bases alone. e = 2'-O-(2-methoxyethyl) (MOE); [5mC] = 5-methylcytosine; d = 2'-deoxy (DNA); r = 2'-OH (RNA)
Columns and labels:
Type in all cases: cell-based
[1] = tested on: human apolipoprotein B mRNA; experiment: Inhibition of human apolipoprotein B mRNA levels in HepG2 cells, quantitative real-time PCR; settings: for % INHIB (inhibition of human apolipoprotein B mRNA levels): HepG2 cells treated with 150 nM of compound, averages from two experiments, quantitative real-time PCR; for % inhibition 37 nM / % inhibition 75 nM / % inhibition 150 nM / % inhibition 300 nM: Table 19 dose response, HepG2 cells, normalized to untreated control
In short: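 HepG2 cells at 80% confluency were transfected with antisense oligonucleotide using 3.75 μg/mL Lipofectin in Opti-MEM for 4-7 h and harvested 16-24 h after treatment. Apolipoprotein B mRNA was measured by real-time RT-PCR and normalized to GAPDH or RiboGreen total RNA. Percent inhibition came from untreated-control standard curves.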

[2] = tested on: human apolipoprotein B mRNA; experiment: Inhibition of apolipoprotein B mRNA by dsRNAs in HepG2 cells; settings: 150 nM with 3.75 μg/mL LIPOFECTIN
Method: In accordance with the present invention, a series of nucleic acid duplexes comprising the antisense compounds of the present invention and their complements were designed to target apolipoprotein B and are shown in Table 42. All compounds in Table 42 are oligoribonucleotides 20 nucleotides in length with phosphodiester internucleoside linkages (backbones) throughout the compound. The compounds were prepared with blunt ends. […] These sequences are shown to contain uracil (U) but one of skill in the art will appreciate that uracil (U) is generally replaced by thymine (T) in DNA sequences. “Targer site” indicates the first (5′-most) nucleotide number on the particular target sequence to which the compound binds. A subset of the compounds in Table 42 are the RNA equivalents of DNA antisense oligonucleotides described herein, and, where applicable, this is noted by the ISIS # of the DNA oligonucleotide in the column “RNA equivalent of ISIS #”.
The dsRNA compounds in Table 42 were tested for their effects on human apolipoprotein mRNA in HepG2 cells. HepG2 cells were treated with 100 nM of dsRNA compounds mixed with 5 μg/mL LIPOFECTIN (Invitrogen Corporation, Carlsbad, Calif.) for a period of 16 hours. In the same experiment, HepG2 cells were also treated with 150 nM of subset of the antisense oligonucleotides described herein mixed with 3.75 μg/mL LIPOFECTIN; these compounds are listed in Table 43. Control oligonucleotides included ISIS 18078 ([…], SEQ ID NO: 888). ISIS 18078 is a chimeric oligonucleotide (“gapmer”) 20 nucleotides in length, composed of a central “gap” region consisting of 9 2′-deoxynucleotides, which is flanked on the 5′ and 3′ ends by a five-nucleotide “wing” and a six-nucleotide “wing”, respectively. The wings are composed of 2′-methoxyethyl (2′-MOE)nucleotides. The internucleoside (backbone) linkages are phosphorothioate (P═S) throughout the oligonucleotide. All cytidines are 5-methylcytidines. The duplex of ISIS 263188 ([…], SEQ ID NO: 889) and its complement was also used as a control. ISIS 263188 is an oligoribonucleotide 21 nucleotides in length with the 2 nucleotides on the 3′ end being oligodeoxyribonucleotides (TT) and with phosphodiester internucleoside linkages (backbones) throughout the compound.
Cells were treated for 4 hours, after which human apolipoprotein B mRNA expression was measured as described by examples herein. Results were normalized to untreated control cells, which were not treated with LIPOFECTIN or oligonucleotide.

[3] = tested on: human apolipoprotein B mRNA; experiment: Apolipoprotein B mRNA in primary human hepatocytes, real-time PCR
Method: In accordance with the present invention, antisense oligonucleotides targeted to human apolipoprotein B were tested in dose response studies in primary human hepatocytes. Pre-plated primary human hepatocytes were purchased from Invitro Technologies (Baltimore, Md.). Cells were cultured in high-glucose DMEM (Invitrogen Corporation, Carlsbad, Calif.) supplemented with 10% fetal bovine serum (Invitrogen Corporation, Carlsbad, Calif.), 100 units/mL and 100 μg/mL streptomycin (Invitrogen Corporation, Carlsbad, Calif.).
Human primary hepatocytes were treated with ISIS 301012 (SEQ ID NO: 247) at 10, 50, 150 or 300 nM. Untreated cells and cells treated with the scrambled control oligonucleotide ISIS 113529 ([…], SEQ ID NO: 859) served as two groups of control cells. ISIS 113529 is a chimeric oligonucleotide (“gapmer”) 20 nucleotides in length, composed of a central “gap” region consisting of ten 2′-deoxynucleotides, which is flanked on both sides (5′ and 3′ directions) by five-nucleotide “wings”. The wings are composed of 2′-methoxyethyl (2′-MOE)nucleotides. The internucleoside (backbone) linkages are phosphorothioate (P═S) throughout the oligonucleotide. All cytidines are 5-methylcytidines.
(§1) Oligonucleotides were introduced into cells through LIPOFECTIN-mediated transfection as described by other examples herein. Cells were harvested both 24 and 48 hours after treatment with oligonucleotide, and both RNA and protein were isolated. Additionally, the culture media from treated cells was collected for ELISA analysis of apolipoprotein B protein secretion.
Apolipoprotein B mRNA expression was determined by real-time PCR of RNA samples as described by other examples herein. Each result represents 6 experiments.
(§2) An additional experiment was performed to test the effects of ISIS 271009 (SEQ ID NO: 319), ISIS 281625 (SEQ ID NO: 224) and ISIS 301027 (SEQ ID NO: 262) on human apolipoprotein B mRNA in human primary hepatocytes. Cells were cultured as described herein and treated with 5, 10, 50 or 150 nM of ISIS 271009, ISIS 281625 or ISIS 301027 for a period of 24 hours. The control oligonucleotides ISIS 13650 (SEQ ID NO: 806) and ISIS 113529 (SEQ ID NO: 859) were used at 50 or 150 nM. Human apolipoprotein B mRNA expression was evaluated by real-time PCR as described by other examples herein. Apolipoprotein B protein secreted into the cultured cell media was measured in the samples treated with 50 and 150 nM of oligonucleotide, using a target protein specific ELISA kit (ALerCHEK Inc., Portland, Me.).

apolipoprotein B protein = experiment: Apolipoprotein B protein secreted from primary human hepatocytes, ELISA; settings: for % Inhibition of apolipoprotein B protein secretion: 24 hours
Method: as §1
Apolipoprotein secreted from into the cultured cell media was measured in the samples treated with 50 and 150 nM of oligonucleotide, using a target protein specific ELISA kit (ALerCHEK Inc., Portland, Me.). Each result represents 3 experiments.
as §2

[4] = tested on: human apolipoprotein(a) mRNA; experiment: Apolipoprotein(a) mRNA expression in primary human hepatocytes, real-time PCR; settings: human primary hepatocytes; 5, 10, 50 or 150 nM, 24 hours
Method: Primary human hepatocytes (InVitro Technologies, Baltimore, Md.), cultured and transfected as described herein, were treated with 5, 10, 50 or 150 nM of ISIS 271009 (SEQ ID NO: 319), 281625 (SEQ ID NO: 224), 301012 (SEQ ID NO: 247) or 301027 (SEQ ID NO: 262). Cells were also treated with 50 or 150 nM of the control oligonucleotides ISIS 113529 (SEQ ID NO: 859) or ISIS 13650 (SEQ ID NO: 806). Untreated cells served as a control. Following 24 hours of oligonucleotide treatment, apolipoprotein(a) mRNA expression was measured by quantitative real-time PCR as described in other examples herein.
Probes and primers to human apolipoprotein(a) were designed to hybridize to a human apolipoprotein(a) sequence, using published sequence information (GenBank accession number NM_005577.1, incorporated herein as SEQ ID NO: 860). For human apolipoprotein(a) the PCR primers were: […]
forward primer: […] (SEQ ID NO: 861)
reverse primer: TGCGTCTGAGCATTGCGT (SEQ ID NO: 862) and the PCR probe was: FAM-[…]-TAMRA (SEQ ID NO: 863) where FAM is the fluorescent dye and TAMRA is the quencher dye.
Data are the average of three experiments and are expressed as percent inhibition relative to untreated controls.

[5] = tested on: Cynomolgous monkey apolipoprotein B mRNA; experiment: Apolipoprotein B mRNA in primary Cynomolgous monkey hepatocytes, real-time PCR; settings: Cynomolgous monkey primary hepatocytes; 10, 50 and 150 nM, 24 hours
Method: Antisense inhibition by ISIS 301012 was compared to that of ISIS 326358, which is a perfect match to the Cynomolgous monkey apolipoprotein B sequence to which ISIS 301012 hybridizes. The compounds were analyzed for their effect on Cynomolgous monkey apolipoprotein B mRNA levels in primary Cynomolgous monkey hepatocytes purchased from In Vitro Technologies ([…].). Pre-plated primary Cynonomolgous monkey hepatocytes were purchased from InVitro Technologies (Baltimore, Md.). Cells were cultured in high-glucose DMEM (Invitrogen Corporation, Carlsbad, Calif.) supplemented with 10% fetal bovine serum (Invitrogen Corporation, Carlsbad, Calif.), 100 units/mL and 100 μg/mL streptomycin (Invitrogen Corporation, Carlsbad, Calif.).
Primary Cynomolgous monkey hepatocytes were treated with 10, 50, 150 or 300 nM of antisense oligonucleotides for 48 hours. ISIS 113529 (SEQ ID NO: 859) was used as a control oligonucleotide. Untreated cells also served as a control. Cynomolgous monkey apolipoprotein B mRNA levels were quantitated by real-time PCR using the human apolipoprotein B and GAPDH primers and probes described by other examples herein. The results, shown in Table 44, are the average of 6 experiments and are expressed as percent inhibition of apolipoprotein B mRNA normalized to untreated control cells.
In a further embodiment of the invention, antisense inhibition by ISIS 281625 was compared to that by ISIS 315089, which is a perfect match to the Cynomolgous monkey apolipoprotein B sequence to which ISIS 281625 hybridizes. Primary Cynomolgous monkey hepatocytes, cultured as described herein, were treated with 10, 50, 150 or 300 nM of ISIS 315089 or ISIS 281625 for 24 hours. Cells were treated with the control oligonucleotide ISIS 13650 (SEQ ID NO: 806) at 150 and 300 nM or ISIS 113529 (SEQ ID NO: 859) at 300 nM. Untreated cells also served as a control. Cynomolgous monkey apolipoprotein B mRNA levels in primary Cynomolgous monkey hepatocytes was quantitated using real-time PCR with human primers and probe as described by other examples herein. The results, shown in Table 46, are the average of 3 experiments and are expressed as percent inhibition of apolipoprotein B mRNA normalized to untreated control cells.
ISIS 271009 (SEQ ID NO: 319) and ISIS 301027 (SEQ ID NO: 262) were also tested for their effects on apolipoprotein B mRNA and protein expression in Cynomolgous primary hepatoctyes. Cells, cultured as described herein, were treated with 10, 50 and 150 nM of ISIS 271009 or ISIS 301027 for 24 hours. Cells were treated with the control oligonucleotide ISIS 113529 (SEQ ID NO: 859) at 150 nM. Untreated cells also served as a control. Cynomolgous monkey apolipoprotein B mRNA levels in primary Cynomolgous monkey hepatocytes was quantitated using real-time PCR with human primers and probe as described by other examples herein. The results, shown in Table 48, are the average of 2 experiments and are expressed as percent inhibition of apolipoprotein B mRNA normalized to untreated control cells.

301014 (e[5mC]*eA*eG*e[5mC]*e[5mC]*d[5mC]*d[5mC]*dG*d[5mC]*dA*dG*dG*dT*d[5mC]*d[5mC]*e[5mC]*eG*eG*eT*eG; antisense) [compound 301014]
% INHIB (inhibition of human apolipoprotein B mRNA levels) [1]: 88%
% inhibition 37 nM [1]: 75%
% inhibition 75 nM [1]: 90%
% inhibition 150 nM [1]: 96%
% inhibition 300 nM [1]: 98%
% Inhibition of apolipoprotein B mRNA [2]: 88%

301031 (eA*eA*eG*eG*e[5mC]*dT*dG*dG*d[5mC]*dT*d[5mC]*dA*d[5mC]*dT*dG*eT*eA*eT*eG*eG; antisense) [compound 301031]
% INHIB (inhibition of human apolipoprotein B mRNA levels) [1]: 90%
% inhibition 37 nM [1]: 61%
% inhibition 75 nM [1]: 82%
% inhibition 150 nM [1]: 92%
% inhibition 300 nM [1]: 96%
% Inhibition of apolipoprotein B mRNA [2]: 73%

18078 (antisense eG*eT*eG*e[5mC]*eG*d[5mC]*dG*d[5mC]*dG*dA*dG*d[5mC]*d[5mC]*d[5mC]*eG*eA*eA*eA*eT*e[5mC]) [compound 18078]
% Inhibition of apolipoprotein B mRNA [2]: 13%

GCCTCAGTCTGCTTCGCGCC (2'-MOE gapmer, further chemistry not given here) [ISIS 271009]
% Inhibition of apolipoprotein B mRNA expression ([3]; 5 nM, 24 hours, "+" = expression increased): +4%
% Inhibition of apolipoprotein B mRNA expression ([3]; 10 nM, 24 hours (Table 37)): 5%
% Inhibition of apolipoprotein B mRNA expression ([3]; 50 nM, 24 hours (Table 37)): 52%
% Inhibition of apolipoprotein B mRNA expression ([3]; 150 nM, 24 hours (Table 37)): 81%
apolipoprotein B mRNA expression ([3]; 5, 10, 50 or 150 nM, 24 hours): inhibit apolipoprotein B mRNA expression in a dose-dependent manner
% Inhibition of apolipoprotein B protein secretion (apolipoprotein B protein; 50 nM): 17%
% Inhibition of apolipoprotein B protein secretion (apolipoprotein B protein; 150 nM, "+" = increased): 32%
secretion of apolipoprotein B protein from cells (ELISA) (apolipoprotein B protein; 50 and 150 nM): inhibit the secretion of apolipoprotein B protein from cells in a dose-dependent manner
expression of apolipoprotein(a) mRNA [4]: inhibited apolipoprotein(a) expression at the highest dose
inhibition of apolipoprotein B mRNA expression [5]: in a dose-dependent manner

263188 (rCrUrUrCrUrGrGrCrArUrCrCrGrGrUrUrUrArGdTdT; siRNA) [compound 263188]
% Inhibition of apolipoprotein B mRNA [2]: 26%

Source: patent US7803930B2, “Antisense modulation of apolipoprotein B-expression” (Isis Pharmaceuticals, Inc., priority 2002, dated 2010)
